From patent US20160002273A1, “THIENO[3,2-D]PYRIMIDINE-6-CARBOXAMIDES AND ANALOGUES AS SIRTUIN MODULATORS” (GLAXOSMITHKLINE LLC, priority 2013, published 2016) come the findings set out here.

In brackets after ≈: the same amount, converted by molar mass. Where two headings read alike, the source gives them in different places.

Data set [1] can be described thus: HPLC based lipophilicity assay (CHI LogD). It counts as physicochemical. The conditions noted are these: CHI values by reverse phase HPLC transformed to a LogD scale.
Data set [2] is described as follows: Kinetic solubility by chemi-luminescent nitrogen detection (CLND). It counts as physicochemical. The note with it: aqueous buffer, kinetic from dmso stock, DMSO stock incubated 1 hr in phosphate buffered saline pH 7.4, filtered.
The target of the next data set is T1, SIRT2 (Homo sapiens, UniProt Q8IXJ6).
T1 sequence (Q8IXJ6 1-389): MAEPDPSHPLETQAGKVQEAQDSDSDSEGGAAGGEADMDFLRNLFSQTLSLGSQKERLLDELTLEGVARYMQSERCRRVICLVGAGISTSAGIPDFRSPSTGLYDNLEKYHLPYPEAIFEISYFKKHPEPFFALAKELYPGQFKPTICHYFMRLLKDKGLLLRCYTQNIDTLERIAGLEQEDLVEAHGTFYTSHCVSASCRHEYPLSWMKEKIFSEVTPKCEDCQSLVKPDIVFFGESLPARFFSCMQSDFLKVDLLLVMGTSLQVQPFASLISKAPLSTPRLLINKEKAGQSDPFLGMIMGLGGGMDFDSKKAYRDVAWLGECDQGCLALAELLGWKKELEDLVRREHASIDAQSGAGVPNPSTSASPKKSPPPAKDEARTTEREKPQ
The experiment in a line: SIRT2 deacetylation of Trp 5-mer peptide, OAADPr mass spec assay. It counts as biochemical. Further details: His-SIRT2(1-389).

A further data set deals with T2, SIRT1 (Homo sapiens, UniProt Q96EB6).
T2 sequence (Q96EB6 1-747): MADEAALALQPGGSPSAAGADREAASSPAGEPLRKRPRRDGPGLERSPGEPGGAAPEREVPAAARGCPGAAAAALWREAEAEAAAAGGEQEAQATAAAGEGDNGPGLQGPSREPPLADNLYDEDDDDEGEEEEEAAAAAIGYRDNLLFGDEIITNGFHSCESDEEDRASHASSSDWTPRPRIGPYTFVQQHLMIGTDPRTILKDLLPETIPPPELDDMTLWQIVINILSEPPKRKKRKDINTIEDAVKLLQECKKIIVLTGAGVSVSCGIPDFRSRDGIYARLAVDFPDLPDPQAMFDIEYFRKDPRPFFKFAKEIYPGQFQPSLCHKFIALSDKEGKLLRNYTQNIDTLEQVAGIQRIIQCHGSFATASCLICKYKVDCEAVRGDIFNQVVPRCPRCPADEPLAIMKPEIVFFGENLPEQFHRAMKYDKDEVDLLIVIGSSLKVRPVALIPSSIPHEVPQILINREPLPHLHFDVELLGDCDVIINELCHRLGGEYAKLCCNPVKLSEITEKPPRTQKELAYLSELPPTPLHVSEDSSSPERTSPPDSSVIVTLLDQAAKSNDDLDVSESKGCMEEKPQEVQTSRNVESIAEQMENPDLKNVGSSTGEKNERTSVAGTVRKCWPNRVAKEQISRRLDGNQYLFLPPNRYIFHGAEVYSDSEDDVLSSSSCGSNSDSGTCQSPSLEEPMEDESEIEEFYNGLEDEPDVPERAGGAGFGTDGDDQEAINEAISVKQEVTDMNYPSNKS
As to the kind of experiment: SIRT1 deacetylation of Trp 5-mer peptide, OAADPr mass spec assay.

A further data set deals with T3, SIRT3 (Homo sapiens, UniProt Q9NTG7).
T3 sequence (Q9NTG7 102-399): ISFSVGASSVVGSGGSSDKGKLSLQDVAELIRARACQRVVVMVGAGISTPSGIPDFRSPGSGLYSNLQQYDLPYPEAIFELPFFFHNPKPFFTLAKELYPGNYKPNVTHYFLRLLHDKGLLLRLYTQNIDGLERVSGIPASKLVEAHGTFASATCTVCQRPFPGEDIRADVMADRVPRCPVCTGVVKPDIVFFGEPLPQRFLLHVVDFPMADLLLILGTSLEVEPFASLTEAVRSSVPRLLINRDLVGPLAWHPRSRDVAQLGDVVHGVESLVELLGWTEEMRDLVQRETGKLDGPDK
The experiment in a line: SIRT3 deacetylation of Trp 5-mer peptide, OAADPr mass spec assay. The note with it: Trp SIRT3_IC50, Trp 5-mer peptide; class symbols.

Where [3] appears, read: Trp 5-mer peptide and NAD at KM, mean of at least three determinations, read-out: IC50 (μM) SIRT2.
[4] abbreviates: Trp 5-mer peptide, class symbols, read-out: Trp SIRT2_IC50.
[5] abbreviates: Trp SIRT1_IC50, Trp 5-mer peptide, class symbols.
[6] abbreviates: read-out: IC50 (μM) SIRT1, Trp 5-mer peptide and NAD at KM, mean of at least three determinations.

Protocol for SIRT1: (§1) All assays were performed at room temperature in reaction buffer (50 mM HEPES, pH 7.5, 150 mM NaCl, 1 mM DTT, 0.05% BSA). […] To prepare the assays for analysis, 20 μL of reaction volume was mixed in 80 μL of 50:50 acetonitrile:methanol mixture. […] Peak data was integrated using RapidFire Integrator software (Agilent, Santa Clara, Calif.).
Protocol for SIRT3: as §1

The term LogD denotes the decadic logarithm of the distribution of all forms, ionised or not, between an organic phase and buffer at a given pH. The low end stands for a more hydrophilic compound, the high end for a more lipophilic compound. The solubility is the concentration that dissolves in the medium under given conditions. Compound `CCNC(=O)c1cccc(C(=O)NCCN2CCN(c3ncnc4cc(C(N)=O)sc34)CC2)c1` [Compound 11b] had a LogD in data set [1] of 1.45. In data set [2], this compound registered a solubility at 1 hr of 220 µM (≈ 106 µg/mL). Also, the IC50 at SIRT2 (setting [3]) was 0.01 µM; at SIRT2 (setting [4]), below 1 µM; at SIRT1 (setting [5]) it was below 1 µM; on SIRT1 (setting [6]), 0.067 µM.
Consider `CCNC(=O)c1ccc(C(=O)NCCC2CCN(c3ncnc4cc(C(N)=O)sc34)CC2)s1` [Compound 11c], for which, in data set [1], the LogD was 2.09. The solubility at 1 hr in data set [2] was 9 µM (≈ 4.38 µg/mL).
For `CCNC(=O)c1ccc(C(=O)NCCN2CCN(c3ncnc4cc(C(N)=O)sc34)CC2)s1` [Compound 11d], the LogD in data set [1] is on record as 1.32. Moreover, in data set [2], the solubility at 1 hr turned out to be 65 µM (≈ 31.7 µg/mL). Moreover, the IC50 on SIRT2 (setting [3]) is 0.005 µM; at SIRT2 (setting [4]), below 1 µM; at SIRT1 (setting [5]), below 1 µM; at SIRT1 (setting [6]) it was 0.031 µM.
Regarding `Cc1nc(N2CCN(CCNC(=O)OC(C)(C)C)CC2)c2sc(C(N)=O)cc2n1` [Compound 149], the IC50 at SIRT2 (setting [4]) was 1 to 10 µM; against SIRT1 (setting [5]), above 10 µM; at SIRT3, 1 to 10 µM.
With `Cc1nc(N2CCN(CCN3CCCC3)CC2)c2sc(C(N)=O)cc2n1` [Compound 150], the IC50 was 1 to 10 µM on SIRT2 (setting [4]), 1 to 10 µM against SIRT1 (setting [5]) and below 1 µM against SIRT3.
For `Cc1nc(N2CCC(CCO)CC2)c2sc(C(N)=O)cc2n1` [Compound 151], the IC50 on SIRT2 (setting [4]), against SIRT1 (setting [5]) and at SIRT3 was 1 to 10 µM each time.
As for `Cc1nc(N2CCC(CCN)CC2)c2sc(C(N)=O)cc2n1` [Compound 152, 4-(4-(2-aminoethyl)piperidin-1-yl)-2-methylthieno[3,2-d]pyrimidine-6-carboxamide], the figures for the IC50 on SIRT2 (setting [4]), on SIRT1 (setting [5]) and on SIRT3 were 1 to 10 µM, above 10 µM and 1 to 10 µM, respectively.
Consider `Cc1nc(N2CCN(CCN)CC2)c2sc(C(N)=O)cc2n1` [Compound 153], for which the results for the IC50 on SIRT2 (setting [4]), on SIRT1 (setting [5]) and at SIRT3 were 1 to 10 µM, above 10 µM and 1 to 10 µM, respectively.
As for `Cc1nc(N2CCN(CCNC(=O)C(C)(C)C)CC2)c2sc(C(N)=O)cc2n1` [Compound 156], the IC50 on SIRT2 (setting [4]) is below 1 µM; on SIRT1 (setting [5]) it was 1 to 10 µM; against SIRT3, 1 to 10 µM.
As to `Cc1nc(N2CCN(CCNC(=O)C3CCCC3)CC2)c2sc(C(N)=O)cc2n1` [Compound 157], the IC50 at SIRT2 (setting [4]) was below 1 µM; at SIRT1 (setting [5]), 1 to 10 µM; on SIRT3, 1 to 10 µM.
Consider `Cc1nc(N2CCN(CCNS(C)(=O)=O)CC2)c2sc(C(N)=O)cc2n1` [Compound 158], for which the IC50 on SIRT2 (setting [4]) is 1 to 10 µM; at SIRT1 (setting [5]), above 10 µM; on SIRT3 it was 1 to 10 µM.
For the compound `Cc1nc(N2CCC(CCNC(=O)C(C)(C)C)CC2)c2sc(C(N)=O)cc2n1` [Compound 159], the results for the IC50 at SIRT2 (setting [4]), at SIRT1 (setting [5]) and against SIRT3 were below 1 µM, below 1 µM and 1 to 10 µM, respectively.
As to `CC(C)(C)OC(=O)NCCC1CCN(c2nccc3cc(C(N)=O)sc23)CC1` [Compound 168, tert-butyl (2-(1-(2-carbamoylthieno[2,3-c]pyridin-7-yl)piperidin-4-yl)ethyl)carbamate], the IC50 at SIRT2 (setting [4]), on SIRT1 (setting [5]) and against SIRT3 was 1 to 10 µM throughout.
`NC(=O)c1cc2ccnc(N3CCC(CCN4CCCC4)CC3)c2s1` [Compound 169]: the IC50 at SIRT2 (setting [4]) is 1 to 10 µM; on SIRT1 (setting [5]), 1 to 10 µM; against SIRT3, below 1 µM.
Regarding `NC(=O)c1cc2ccnc(N3CCC(CN4CCCC4)CC3)c2s1` [Compound 170], the IC50 at SIRT2 (setting [4]) was above 10 µM; at SIRT1 (setting [5]), above 10 µM; against SIRT3 it was 1 to 10 µM.
Take `COCCC1CCN(c2nccc3cc(C(N)=O)sc23)CC1` [Compound 171]: the IC50 on SIRT2 (setting [4]), against SIRT1 (setting [5]) and against SIRT3 was above 10 µM each time.
For the compound `NC(=O)c1cc2ccnc(N3CCN(CCN4CCCC4)CC3)c2s1` [Compound 173], the IC50 on SIRT2 (setting [4]) was 1 to 10 µM; against SIRT1 (setting [5]), 1 to 10 µM; at SIRT3 it was below 1 µM.
`NCCC1CCN(c2nccc3cc(C(N)=O)sc23)CC1` [Compound 175, 7-(4-(2-aminoethyl)piperidin-1-yl)thieno[2,3-c]pyridine-2-carboxamide]: the IC50 on SIRT2 (setting [4]), at SIRT1 (setting [5]) and against SIRT3 was above 10 µM in each case.
For the compound `CC(C)(C)C(=O)NCCN1CCN(c2nccc3cc(C(N)=O)sc23)CC1` [Compound 179], the IC50 on SIRT2 (setting [4]) is 1 to 10 µM; against SIRT1 (setting [5]) it was above 10 µM; against SIRT3, above 10 µM.
As for `NC(=O)c1cc2ncnc(N3CCC(C(=O)N4CCCC4)CC3)c2s1` [Compound 182], the IC50 at SIRT2 (setting [4]) was 1 to 10 µM; against SIRT1 (setting [5]), above 10 µM; on SIRT3, 1 to 10 µM.
Regarding `CC(C1CCN(c2ncnc3cc(C(N)=O)sc23)CC1)N1CCCC1` (centres unmarked) [Compound 183], the IC50 on SIRT2 (setting [4]), against SIRT1 (setting [5]) and at SIRT3 was below 1 µM each time.
Regarding `CC(C)(C)OC(=O)N1CCC2(CCN(c3ncnc4cc(C(N)=O)sc34)CC2)C1` [Compound 184], the IC50 at SIRT2 (setting [4]) was below 1 µM; against SIRT1 (setting [5]), 1 to 10 µM; against SIRT3, 1 to 10 µM.
For the compound `NC(=O)c1cc2ncnc(N3CCC4(CCNC4)CC3)c2s1` [Compound 185], the IC50 on SIRT2 (setting [4]) was 1 to 10 µM; on SIRT1 (setting [5]), 1 to 10 µM; at SIRT3, below 1 µM.
As to `CC(C)(C)C(=O)N1CCC2(CCN(c3ncnc4cc(C(N)=O)sc34)CC2)C1` [Compound 186], the IC50 at SIRT2 (setting [4]), against SIRT1 (setting [5]) and against SIRT3 was below 1 µM each time.
For the compound `NCCC1CCN(c2ncnc3ccsc23)CC1` [Compound 188, 2-(1-(thieno[3,2-d]pyrimidin-4-yl)piperidin-4-yl)ethanamine 2,2,2-trifluoroacetate], the IC50 is 1 to 10 µM at SIRT2 (setting [4]), above 10 µM at SIRT1 (setting [5]) and above 10 µM at SIRT3.
`CC(C)(C)OC(=O)NCCC1CCN(c2ncnc3cc(C(=O)O)sc23)CC1` [Compound 189, 4-(4-(2-((tert-butoxycarbonyl)amino)ethyl)piperidin-1-yl)thieno[3,2-d]pyrimidine-6-carboxylic acid]: the IC50 on SIRT2 (setting [4]), on SIRT1 (setting [5]) and at SIRT3 was above 10 µM throughout.
In the case of `CCNC(=O)c1cccc(C(=O)NCCN2CCN(c3ncnc4ccsc34)CC2)c1` [Compound 190], the IC50 at SIRT2 (setting [4]), against SIRT1 (setting [5]) and against SIRT3 was above 10 µM in each case.
Regarding `NCCNC(=O)c1cccc(C(=O)NCCN2CCN(c3ncnc4ccsc34)CC2)c1` [Compound 191], the IC50 at SIRT2 (setting [4]), at SIRT1 (setting [5]) and at SIRT3 was above 10 µM throughout.
Regarding `O=C(O)c1cc2ncnc(N3CCC(CN4CCCC4)CC3)c2s1` [Compound 192], the IC50 on SIRT2 (setting [4]), against SIRT1 (setting [5]) and against SIRT3 was above 10 µM throughout.
With `CCNC(=O)c1ccc(C(=O)NCCC2CCN(c3ncnc4ccsc34)CC2)s1` [Compound 193], the IC50 on SIRT2 (setting [4]), against SIRT1 (setting [5]) and at SIRT3 was above 10 µM throughout.
Turning to `CCNC(=O)c1ccc(C(=O)NCCC2CCN(c3ncnc4cc(C(=O)NCC)sc34)CC2)s1` [Compound 194], the IC50 on SIRT2 (setting [4]), at SIRT1 (setting [5]) and against SIRT3 was 1 to 10 µM each time.
